In PMC2658777, “Prodrugs of Fluoro-Substituted Benzoates of EGC as Tumor Cellular Proteasome Inhibitors and Apoptosis Inducers” (International Journal of Molecular Sciences, 2008):
One block for each compound: values may come before it.

Key:
[1] = biological target: T1, purified rabbit 20S proteasome (chymotrypsin-like activity) (Oryctolagus cuniculus, UniProt G1T4Q9); test: Inhibition of the chymotrypsin-like activity of a purified 20S proteasome; type: biochemical; settings: fluorogenic substrate, 2 h incubation
T1 construct: purchased Boston Biochem
T1 sequence (G1T4Q9 1-263): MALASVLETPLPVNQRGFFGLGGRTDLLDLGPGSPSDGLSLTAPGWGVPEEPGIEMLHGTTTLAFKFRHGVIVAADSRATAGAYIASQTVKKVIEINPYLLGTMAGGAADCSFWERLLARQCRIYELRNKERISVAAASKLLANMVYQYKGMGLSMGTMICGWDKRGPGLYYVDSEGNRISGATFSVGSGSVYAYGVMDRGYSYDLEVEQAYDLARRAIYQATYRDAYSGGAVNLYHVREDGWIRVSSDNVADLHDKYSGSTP
Description: We first tested the effect of these compounds on inhibiting the chymotrypsin-like activity of a purified 20S proteasome using purified EGCG as a positive control. Each of these compounds was incubated with a purified rabbit 20S proteasome and a fluorogenic substrate for chymotrypsin-like activity for 2 h. The half-maximal inhibitory concentration or IC50 was then determined.
Highly purified (-)-EGCG and dimethyl sulfoxide (DMSO) were purchased from Sigma-Aldrich. Purified 20S proteasome (rabbit) was purchased from Boston Biochem. Fluorogenic peptide substrate Suc-Leu-Leu-Val-Tyr-AMC (for the proteasomal chymotrypsin-like activity) was obtained from Calbiochem. Polyclonal antibody to ubiquitin, IκB-α̣ monoclonal anti-actin, anti-goat, anti-rabbit, and anti-mouse IgG-horseradish peroxidase were obtained from Santa Cruz Biotechnology Inc. Mouse monoclonal anitbody against human poly(ADP-ribose) polymerase (PARP) was purchased from Biomol International LP (Plymouth Meeting, PA). RPMI 1640, Penicillin and streptomycin were purchased from Invitrogen.

[2] = tested on: Human leukemia Jurkat T cells; test: Trypan blue dye exclusion cell death assay; type: cell-based; settings: 50 μM, 24 h
Description: We first tested whether these Pro-F-EGCGs could induce cell death in tumor cells. Human leukemia Jurkat T cells were treated with 50 μM of each analog for 24 h, followed by Trypan-blue exclusion assay. Blue cells and cells with apoptosis-associated morphological changes (shrunken, blebbing, etc) were scored as dead cells. Pro-EGCG (1) and DMSO were used as controls.
The Trypan blue dye exclusion assay was performed by mixing 20 μL of cell suspension with 20 μL of 0.4% Trypan blue dye before injecting into a hemocytometer and counting. The number of cells that absorbed the dye and those that exclude the dye were counted, from which percentage of nonviable cell number over the total cell number was calculated.
(§1) Human leukemia Jurkat T cells were cultured in RPMI 1640 medium supplemented with 10% fetal calf serum, 100 units/mL of penicillin, and 100 μg/mL of streptomycin. Cells were maintained at 37 °C in a humidified incubator with an atmosphere of 5% CO2. Jurkat T cells were treated by selected compounds at various concentrations for indicated hours (see figure legends for details), and a whole-cell extract was then prepared as described previously. Briefly, cells were harvested, washed with PBS, and homogenized in a lysis buffer (50 mM, Tris-HCl, pH 8.0, 150 mM NaCl, 0.5% NP-40, 0.5 mM penylmethylsulfonyl fluoride, and 0.5 mM dithiothreitol) at 4 °C. Afterwards, the lysates were centrifuged at 12,000 × g for 15 min at 4 °C and the supernatants collected as whole-cell extracts.

[3] = tested on: caspase-3/7 activities in Jurkat T cells; test: Caspase-3/7 activity in extracts of treated cells; type: cell-based, human; settings: 50 μM, 24 h (dose-dependent experiment)
Description: (§2) To study whether the induction of cell death by Pro-F-EGCG4 was due to its proteasome-inhibitory and apoptosis-inducing activities, Jurkat T cells were treated with 50 μM of Pro-F-EGCG4 and Pro-EGCG (1) as a control for 4, 8 and 24 h, followed by measurement of proteasome inhibition and apoptotic cell death. […] Previously, we reported that the p56 is an ubiquitinated form of IκB-α protein as a marker of proteasome inhibition, as verified by the immunoprecipitation-Western blot assay. […] Consistently, PARP cleavage fragment p85 was detected in Jurkat T cells treated with Pro-F-EGCG4 in a time-dependent manner (Fig. 3B). A p65 PARP fragment was also detected in cells treated with Pro-F-EGCG4 (Fig. 3B), indicating calpain activation occurred as well [14]. Apoptotic morphological changes were observed after 4 hours of treatment with Pro-F-EGCG4 (data not shown).
Human leukemia Jurkat T cells were cultured in RPMI 1640 medium supplemented with 10% fetal calf serum, 100 units/mL of penicillin, and 100 μg/mL of streptomycin. Cells were maintained at 37 °C in a humidified incubator with an atmosphere of 5% CO2. […]
Cells were treated with each compound at indicated concentration for indicated hours, harvested, and lysed as described previously. Ac-DEVD-AMC (40 μM) was then incubated with the prepared cell lysates for 2 h and the caspase-3 activity was measured as described previously.

[4] = tested on: proteasomal chymotrypsin (CT)-like activity in Jurkat T cells; test: Cellular proteasomal chymotrypsin-like activity in extracts of treated cells; type: cell-based, human
Description: as §2
We then performed a dose-dependent experiment. Jurkat T cells were treated with Pro-F-EGCG4 or Pro-EGCG (1) at 10, 25, or 50 μM for 24 h, followed by measurement of proteasome inhibition and apoptotic cell death.
as §1
Human leukemia Jurkat T cells were treated with each compound at indicated concentration for indicated hours (see the figure legends for details), harvested, and lysed as described previously. Whole cell extracts were prepared as detailed in section 3.4, aliquoted and kept at −80 °C. One of the aliquots was used for determination of protein concentration. After that, whole cell extracts (10 μg) from each preparation were incubated with Suc-Leu-Leu-Val-Tyr-AMC (20 μM) fluorogenic substrate at 37°C in 100 μl of assay buffer (50 mM Tris-HCL, pH 7.5) for 2 h. After incubation, production of hydrolyzed 7-amino-4-methylcoumarin (AMC) groups was measured using a Victor^3 Multilabel Counter with an excitation filter of 380 nm and an emission filter of 460 nm (PerkinElmer, Boston, MA, USA).

Jurkat T cells = test: Western blot of ubiquitinated IκB-α (p56), ubiquitinated proteins and PARP cleavage; type: cell-based, human; settings: for p56 IκB-α (ubiquitinated form), Western blot: 50 μM; for accumulation of ubiquitinated proteins, Western blot: Jurkat T cells, 10, 25 or 50 μM
Description: as §2, §1
Analysis of IκB-α, PARP, and ubiquitinated proteins was performed using monoclonal or polyclonal antibodies, according to previously reported protocols.

[5] = parameters: method as in PMID 17477351; settings: in vitro; cited from earlier work
[6] = tested on: human breast cancer xenografts; parameters: method as in PMID 17483343; settings: human breast cancer xenografts in mice; cited from earlier work
[7] = Jurkat T cells, 50 μM, 4, 8 and 24 h
[8] = Jurkat T cells, 10, 25 or 50 μM, 24 h

IC50 [1]: 680 nM
SMILES: O=C(O[C@@H]1Cc2c(O)cc(O)cc2O[C@@H]1c1cc(O)c(O)c(O)c1)c1cc(O)c(O)c(O)c1 [(-)-EGCG, (-)-epigallocatechin-3-gallate, reference compound]

IC50 [1]: 1250 nM
SMILES: O=C(O[C@@H]1Cc2c(O)cc(O)cc2O[C@@H]1c1cc(O)c(O)c(O)c1)c1ccccc1F [F-EGCG1, (-)-(2R, 3R)-5,7-dihydroxy-2-(3,4,5-trihydroxyphenyl)chroman-3-yl 2-fluorobenzoate]

IC50 [1]: 840 nM
SMILES: O=C(O[C@@H]1Cc2c(O)cc(O)cc2O[C@@H]1c1cc(O)c(O)c(O)c1)c1cccc(F)c1 [F-EGCG2]

IC50 [1]: 1900 nM
SMILES: O=C(O[C@@H]1Cc2c(O)cc(O)cc2O[C@@H]1c1cc(O)c(O)c(O)c1)c1ccc(F)cc1 [F-EGCG3]

IC50 [1]: 650 nM
SMILES: O=C(O[C@@H]1Cc2c(O)cc(O)cc2O[C@@H]1c1cc(O)c(O)c(O)c1)c1ccc(F)c(F)c1 [F-EGCG4]

SMILES: CC(=O)Oc1cc(OC(C)=O)c2c(c1)O[C@H](c1cc(OC(C)=O)c(OC(C)=O)c(OC(C)=O)c1)[C@H](OC(=O)c1cc(OC(C)=O)c(OC(C)=O)c(OC(C)=O)c1)C2 [Pro-EGCG (1), reference compound]
cell death (dead cells over total cell population) [2]: ~ 70%
caspase 3/7 activity, induction [3]: 6 fold
proteasomal CT-like activity in treated cells [4, 7]: decrease in the level of the proteasomal CT-like activity in a time-dependent manner
proteasomal CT-like activity in treated cells [4, 8]: showed inhibition
p56 IκB-α (ubiquitinated form), Western blot (Jurkat T cells; Jurkat T cells, all the time points (4, 8, 24 h)): increased level
accumulation of ubiquitinated proteins, Western blot (Jurkat T cells; 24 h): accumulation of ubiquitinated proteins
cellular permeability and stability compared with natural EGCG [5]: significantly enhanced
anti-tumor activity compared with natural EGCG [6]: greater anti-tumor activity

SMILES: CC(=O)Oc1cc(OC(C)=O)c2c(c1)O[C@H](c1cc(OC(C)=O)c(OC(C)=O)c(OC(C)=O)c1)[C@H](OC(=O)c1ccccc1F)C2 [Pro-F-EGCG1, (-)-(2R, 3R)-5,7-Diacetoxy-2-(3,4,5-triacetoxyphenyl)chroman-3-yl 2-fluorobenzoate]
cell death (dead cells over total cell population) [2]: 44%

SMILES: CC(=O)Oc1cc(OC(C)=O)c2c(c1)O[C@H](c1cc(OC(C)=O)c(OC(C)=O)c(OC(C)=O)c1)[C@H](OC(=O)c1cccc(F)c1)C2 [Pro-F-EGCG2, (-)-(2R, 3R)-5,7-Diacetoxy-2-(3,4,5-triacetoxyphenyl)chroman-3-yl 3-fluorobenzoate]
cell death (dead cells over total cell population) [2]: 90%

SMILES: CC(=O)Oc1cc(OC(C)=O)c2c(c1)O[C@H](c1cc(OC(C)=O)c(OC(C)=O)c(OC(C)=O)c1)[C@H](OC(=O)c1ccc(F)cc1)C2 [Pro-F-EGCG3, (-)-(2R, 3R)-5,7-Diacetoxy-2-(3,4,5-triacetoxyphenyl)chroman-3-yl 4-fluorobenzoate]
cell death (dead cells over total cell population) [2]: 30%

SMILES: CC(=O)Oc1cc(OC(C)=O)c2c(c1)O[C@H](c1cc(OC(C)=O)c(OC(C)=O)c(OC(C)=O)c1)[C@H](OC(=O)c1ccc(F)c(F)c1)C2 [Pro-F-EGCG4, (-)-(2R,3R)-5,7-Diacetoxy-2-(3,4,5-triacetoxyphenyl)chroman-3-yl 3,4-difluorobenzoate]
cell death (dead cells over total cell population) [2]: 90%
proteasomal CT-like activity in treated cells [4, 7]: decreased level
proteasomal CT-like activity in treated cells [4, 8]: inhibited the proteasomal CT-like activity in a dose-dependent manner
PARP cleavage fragment p85, Western blot (Jurkat T cells; [7]): detected
p56 IκB-α (ubiquitinated form), Western blot (Jurkat T cells; Jurkat T cells, 4 or 8 h): induced the appearance
p56 IκB-α (ubiquitinated form), Western blot (Jurkat T cells; Jurkat T cells, 24 h): not detected
accumulation of ubiquitinated proteins, Western blot (Jurkat T cells; 24 h): caused accumulation of ubiquitinated proteins in a dose-dependent manner
